Source: publication PMC8580996, “2-Oxoglutarate derivatives can selectively enhance or inhibit the activity of human oxygenases” (Nature Communications, 2021)
Where “and” joins values, the source holds several entries; their conditions need not be identical. Equal entries are not always repeated. Entries after “also recorded” stand apart in the source; their conditions may differ. One block for each compound: values may come before it.

What was measured:
[1] = molecular target: T1, AspH (Homo sapiens, UniProt Q12797); settings: 0.05 μM AspH, 1.0 μM hFX-CP101-119, 3.0 μM 2OG, ref 21 (supplementary ref 1); cited from earlier work
T1 construct: the tetratricopeptide repeat domain (His6-AspH315-758), was produced and purified as previously reported; made in house
T1 sequence (Q12797 315-758): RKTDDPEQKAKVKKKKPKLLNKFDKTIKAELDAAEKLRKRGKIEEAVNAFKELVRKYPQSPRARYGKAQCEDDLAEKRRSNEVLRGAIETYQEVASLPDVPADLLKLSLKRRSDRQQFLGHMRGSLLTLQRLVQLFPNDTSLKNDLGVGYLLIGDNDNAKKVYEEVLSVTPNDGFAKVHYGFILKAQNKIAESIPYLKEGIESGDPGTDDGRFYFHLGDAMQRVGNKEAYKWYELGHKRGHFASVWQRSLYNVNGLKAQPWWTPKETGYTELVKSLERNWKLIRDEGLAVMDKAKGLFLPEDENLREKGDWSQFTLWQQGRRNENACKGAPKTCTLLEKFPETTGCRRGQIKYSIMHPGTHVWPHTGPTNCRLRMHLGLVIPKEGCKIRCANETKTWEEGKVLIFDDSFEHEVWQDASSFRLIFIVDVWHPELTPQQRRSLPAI

[2] = molecular target: T1, AspH; set-up: method as in PMID 34163896; settings: hFX-CP101–119 substrate, 330 μM 2OG or 2OG derivative, t = 15 min; cited from earlier work
[3] = molecular target: FIH (Homo sapiens, UniProt Q9NWT6); assay: Competition assay in a single reaction vessel, FIH-catalyzed hydroxylation (SPE-MS); assay type: biochemical
Sequence of FIH (Q9NWT6 whole entry): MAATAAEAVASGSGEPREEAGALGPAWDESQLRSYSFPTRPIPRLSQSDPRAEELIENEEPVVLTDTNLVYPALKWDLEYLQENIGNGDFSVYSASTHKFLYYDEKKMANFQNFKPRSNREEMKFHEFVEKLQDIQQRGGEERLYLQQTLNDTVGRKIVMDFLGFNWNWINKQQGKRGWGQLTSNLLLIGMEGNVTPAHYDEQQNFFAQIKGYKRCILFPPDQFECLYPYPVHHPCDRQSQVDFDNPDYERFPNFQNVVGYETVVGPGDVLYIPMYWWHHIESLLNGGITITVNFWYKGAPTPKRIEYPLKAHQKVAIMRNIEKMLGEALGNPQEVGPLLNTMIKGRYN
Experimental: Mean of three independent runs (n = 3; mean ± SD). […] Cosubstrates: a 20 μM 2OG; b 20 μM 2OG; c 20 μM 1; d 20 μM 12; e 20 μM 12 and 100 μM 2OG; f 100 μM 14. Source data are provided as a Source Data file.
Mean of three independent runs (n = 3; mean ± SD). […] Source data are provided as a Source Data file.
Peptide turnover was monitored by SPE-MS using the same instrument configuration (with the exception that the peptides were eluted from the SPE cartridge with 0.1%v/v aqueous formic acid in 80/20 v/v acetonitrile/water) as described above.
FIH and AspH-catalyzed peptide hydroxylations were analyzed simultaneously using SPE-MS as described in the
Methods section; competition experiments were performed in the same reaction vessel using equimolar 2OG
oxygenase and substrate concentrations. […]
Source data are provided as a Source Data file.
FIH and AspH-catalyzed peptide hydroxylations were analyzed simultaneously using SPE-
MS as described in the Methods section; competition experiments were performed in the same reaction vessel
using equimolar 2OG oxygenase and substrate concentrations. […]
2OG, 100 μM 14. Source data are provided as a Source Data file.

FIH-catalyzed CA1–20 conversion ([3]; Fig 2e, 20 μM 12 and 100 μM 2OG): ~ 90%
substrate hydroxylation (% conversion) ([3]; Fig 2e, 20 μM 12 and 100 μM 2OG, FIH, 0 min): 15.3987 and 14.8576 and 13.209
substrate hydroxylation (% conversion) ([3]; Fig 2e, 20 μM 12 and 100 μM 2OG, FIH, 0.237833 min): 27.0539 and 26.3778 and 23.9445
substrate hydroxylation (% conversion) ([3]; Fig 2e, 20 μM 12 and 100 μM 2OG, FIH, 0.478833 min): 35.9286 and 35.8922 and 32.7293
substrate hydroxylation (% conversion) ([3]; Fig 2e, 20 μM 12 and 100 μM 2OG, FIH, 0.717 min): 45.1159 and 43.9873 and 41.1347
substrate hydroxylation (% conversion) ([3]; Fig 2e, 20 μM 12 and 100 μM 2OG, FIH, 0.956333 min): 51.8274
substrate hydroxylation (% conversion) ([3]; Fig 2e, 20 μM 12 and 100 μM 2OG, FIH, 1.43767 min): 63.7405 and 62.295 and 59.0531
substrate hydroxylation (% conversion) ([3]; Fig 2e, 20 μM 12 and 100 μM 2OG, FIH, 1.67667 min): 68.2711 and 66.7748 and 63.7338
substrate hydroxylation (% conversion) ([3]; Fig 2e, 20 μM 12 and 100 μM 2OG, FIH, 1.918 min): 71.9325 and 70.2648 and 67.9993
substrate hydroxylation (% conversion) ([3]; Fig 2e, 20 μM 12 and 100 μM 2OG, FIH, 2.15883 min): 75.384 and 73.508 and 70.5367
substrate hydroxylation (% conversion) ([3]; Fig 2e, 20 μM 12 and 100 μM 2OG, FIH, 2.6405 min): 81.0929 and 78.2797 and 76.6153
substrate hydroxylation (% conversion) ([3]; Fig 2e, 20 μM 12 and 100 μM 2OG, FIH, 2.88117 min): 82.6978 and 80.7392 and 78.6776
substrate hydroxylation (% conversion) ([3]; Fig 2e, 20 μM 12 and 100 μM 2OG, FIH, 3.12267 min): 85.0838 and 82.5241 and 80.8532
substrate hydroxylation (% conversion) ([3]; Fig 2e, 20 μM 12 and 100 μM 2OG, FIH, 3.36583 min): 85.9652 and 84.4207 and 82.727
substrate hydroxylation (% conversion) ([3]; Fig 2e, 20 μM 12 and 100 μM 2OG, FIH, 3.60733 min): 87.7923 and 85.7936 and 83.2563
substrate hydroxylation (% conversion) ([3]; Fig 2e, 20 μM 12 and 100 μM 2OG, FIH, 3.849 min): 88.932 and 84.1653 and 80.7905
substrate hydroxylation (% conversion) ([3]; Fig 2d, 20 μM 12, FIH, 0 min): 8.164 and 7.161 and 7.808
substrate hydroxylation (% conversion) ([3]; Fig 2d, 20 μM 12, FIH, 0.707167 min): 31.5759 and 26.6674 and 29.4313
substrate hydroxylation (% conversion) ([3]; Fig 2d, 20 μM 12, FIH, 1.41317 min): 48.4989 and 42.8597 and 46.6007
substrate hydroxylation (% conversion) ([3]; Fig 2d, 20 μM 12, FIH, 2.12133 min): 61.9239 and 55.8625 and 59.591
substrate hydroxylation (% conversion) ([3]; Fig 2d, 20 μM 12, FIH, 2.822 min): 71.1548 and 65.8729 and 69.0603
substrate hydroxylation (% conversion) ([3]; Fig 2d, 20 μM 12, FIH, 3.52117 min): 77.6139 and 72.8151 and 76.4316
substrate hydroxylation (% conversion) ([3]; Fig 2d, 20 μM 12, FIH, 4.22083 min): 82.6095 and 78.8355 and 81.4405
substrate hydroxylation (% conversion) ([3]; Fig 2d, 20 μM 12, FIH, 4.9205 min): 86.3253 and 83.0223 and 85.6621
substrate hydroxylation (% conversion) ([3]; Fig 2d, 20 μM 12, FIH, 5.62167 min): 89.1149 and 86.1539 and 88.6579
substrate hydroxylation (% conversion) ([3]; Fig 2d, 20 μM 12, FIH, 6.3215 min): 91.4092 and 88.7795 and 90.8352
substrate hydroxylation (% conversion) ([3]; Fig 2d, 20 μM 12, FIH, 7.02117 min): 93.1171 and 89.921 and 92.1057
substrate hydroxylation (% conversion) ([3]; Fig 2d, 20 μM 12, FIH, 7.724 min): 94.3469 and 91.6232 and 93.2231
substrate hydroxylation (% conversion) ([3]; Fig 2d, 20 μM 12, FIH, 8.42383 min): 95.3806 and 92.9188 and 94.5877
substrate hydroxylation (% conversion) ([3]; Fig 2d, 20 μM 12, FIH, 9.1255 min): 96.194 and 94.1363 and 95.5545
substrate hydroxylation (% conversion) ([3]; Fig 2d, 20 μM 12, FIH, 9.83 min): 97.3851 and 94.9972 and 96.1755
substrate hydroxylation (% conversion) ([3]; Fig 2d, 20 μM 12, FIH, 10.5315 min): 98.7917 and 94.9441 and 95.9828
FIH-catalyzed CA1–20 hydroxylation ([3]; Fig 2d, 20 μM 12, after ~5 min): ~ 90%
Compound: CC(CC(=O)C(=O)O)C(=O)O (stereo not drawn) [compound 12, 4-methyl-2OG]
IC50 AspH [1]: inactive; also recorded: neither inhibits AspH nor FIH
AspH activity, %-substrate conversion [2]: ~10%

substrate hydroxylation (% conversion) ([3]; Fig 2c, 20 μM 1, FIH, 0 min): 3.506 and 4.816 and 5.633
substrate hydroxylation (% conversion) ([3]; Fig 2c, 20 μM 1, FIH, 0.700167 min): 19.4856 and 18.7444 and 19.2793
substrate hydroxylation (% conversion) ([3]; Fig 2c, 20 μM 1, FIH, 1.39933 min): 32.3038 and 30.8139 and 30.8824
substrate hydroxylation (% conversion) ([3]; Fig 2c, 20 μM 1, FIH, 2.10017 min): 43.2797 and 40.6551 and 40.5787
substrate hydroxylation (% conversion) ([3]; Fig 2c, 20 μM 1, FIH, 2.79917 min): 51.3082 and 49.0078 and 49.2389
substrate hydroxylation (% conversion) ([3]; Fig 2c, 20 μM 1, FIH, 3.5005 min): 58.9995 and 56.3411 and 56.671
substrate hydroxylation (% conversion) ([3]; Fig 2c, 20 μM 1, FIH, 4.20083 min): 64.1723 and 62.5798 and 63.2033
substrate hydroxylation (% conversion) ([3]; Fig 2c, 20 μM 1, FIH, 4.9 min): 69.5252 and 67.0447 and 68.2025
substrate hydroxylation (% conversion) ([3]; Fig 2c, 20 μM 1, FIH, 5.60117 min): 73.4042 and 71.6094 and 72.347
substrate hydroxylation (% conversion) ([3]; Fig 2c, 20 μM 1, FIH, 6.29967 min): 77.1725 and 74.6235 and 74.9327
substrate hydroxylation (% conversion) ([3]; Fig 2c, 20 μM 1, FIH, 7.00033 min): 79.731 and 76.5169 and 77.4955
substrate hydroxylation (% conversion) ([3]; Fig 2c, 20 μM 1, FIH, 7.7025 min): 81.4904 and 79.3791 and 79.9762
substrate hydroxylation (% conversion) ([3]; Fig 2c, 20 μM 1, FIH, 8.40233 min): 83.8334 and 81.9815 and 82.8865
substrate hydroxylation (% conversion) ([3]; Fig 2c, 20 μM 1, FIH, 9.10283 min): 86.0072 and 84.3134 and 84.9864
substrate hydroxylation (% conversion) ([3]; Fig 2c, 20 μM 1, FIH, 9.806 min): 87.2729 and 86.3042 and 86.5893
substrate hydroxylation (% conversion) ([3]; Fig 2c, 20 μM 1, FIH, 11.207 min): 89.9552 and 84.6882 and 85.7483
FIH-catalyzed CA1–20 hydroxylation ([3]; Fig 2c, 20 μM 1, after about 8 min): > 80%
Compound: CC(CC(=O)O)C(=O)C(=O)O (stereo not drawn) [compound 1, 3-methyl-2OG]
IC50 AspH [1]: inactive
AspH activity, %-substrate conversion [2]: >95%
